Measurements as given in the supplement of paper PMC10307832.

Columns and labels:
Assay in all cases: relative viability (nuclei count vs DMSO), 5 days (fraction); higher = more cells survive
NCI-H520 = system: NCI-H520
How it was run: (§1)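 Values are medians from duplicate plates. Each reflects relative viability, defined as the nuclei count of treated wells over that of vehicle wells. Lung cancer cell lines in 1536-well plates were pin-tool dosed one day after seeding with one drug alone or with a fixed anchor-drug dose plus five library-drug doses (not always all listed) in √10 steps, then fixed, stained and imaged at 4× after 5 days.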

RERF-LC-KJ = system: RERF-LC-KJ
How it was run: as §1

Calu-6 = system: Calu-6
How it was run: as §1

IA-LM = system: IA-LM
How it was run: as §1

NCI-H1651 = system: NCI-H1651
How it was run: as §1

NCI-H1703 = system: NCI-H1703
How it was run: as §1

EBC-1 = system: EBC-1
How it was run: as §1

NCI-H1299 = system: NCI-H1299
How it was run: as §1

CC1(C)CCC(c2ccc(Cl)cc2)=C(CN2CCN(c3ccc(C(=O)NS(=O)(=O)c4ccc(N[C@H](CCN5CCOCC5)CSc5ccccc5)c(S(=O)(=O)C(F)(F)F)c4)cc3)CC2)C1 [Navitoclax] + CC(C)C[C@H](NC(=O)[C@H](Cc1ccccc1)NC(=O)c1cnccn1)B(O)O [Bortezomib] (partner 0.002 µM)
relative viability (NCI-H520; first compound 0.005 µM): 0.577
relative viability (NCI-H520; first compound 0.01581 µM): 0.743
relative viability (NCI-H520; first compound 0.05 µM): 0.869
relative viability (NCI-H520; first compound 0.1581 µM): 0.6
relative viability (NCI-H520; first compound 0.5 µM): 0.712
relative viability (RERF-LC-KJ; first compound 0.005 µM): 1.07
relative viability (RERF-LC-KJ; first compound 0.01581 µM): 1.14
relative viability (RERF-LC-KJ; first compound 0.05 µM): 1
relative viability (RERF-LC-KJ; first compound 0.1581 µM): 1.09
relative viability (RERF-LC-KJ; first compound 0.5 µM): 1.35
relative viability (Calu-6; first compound 0.005 µM): 0.999
relative viability (Calu-6; first compound 0.01581 µM): 1.16
relative viability (Calu-6; first compound 0.05 µM): 1.13
relative viability (Calu-6; first compound 0.1581 µM): 0.972
relative viability (Calu-6; first compound 0.5 µM): 0.877
relative viability (IA-LM; first compound 0.005 µM): 0.926
relative viability (IA-LM; first compound 0.01581 µM): 0.818
relative viability (IA-LM; first compound 0.05 µM): 0.824
relative viability (IA-LM; first compound 0.1581 µM): 0.896
relative viability (IA-LM; first compound 0.5 µM): 0.747
relative viability (NCI-H1651; first compound 0.005 µM): 0.918
relative viability (NCI-H1651; first compound 0.01581 µM): 0.916
relative viability (NCI-H1651; first compound 0.05 µM): 0.423
relative viability (NCI-H1651; first compound 0.1581 µM): 0.943
relative viability (NCI-H1651; first compound 0.5 µM): 0.957
relative viability (NCI-H1703; first compound 0.005 µM): 0.214
relative viability (NCI-H1703; first compound 0.01581 µM): 0.275
relative viability (NCI-H1703; first compound 0.05 µM): 0.313
relative viability (NCI-H1703; first compound 0.1581 µM): 0.65
relative viability (NCI-H1703; first compound 0.5 µM): 0.224
relative viability (EBC-1; first compound 0.005 µM): 0.614
relative viability (EBC-1; first compound 0.01581 µM): 0.649
relative viability (EBC-1; first compound 0.05 µM): 0.575
relative viability (EBC-1; first compound 0.1581 µM): 0.616
relative viability (EBC-1; first compound 0.5 µM): 0.383
relative viability (NCI-H1299; first compound 0.005 µM): 1.04
relative viability (NCI-H1299; first compound 0.01581 µM): 1.12
relative viability (NCI-H1299; first compound 0.05 µM): 1.01
relative viability (NCI-H1299; first compound 0.1581 µM): 1.05
relative viability (NCI-H1299; first compound 0.5 µM): 1.02

Oc1nc(-c2ccc(C(F)(F)F)cc2)nc2c1CSCC2 [XAV939] + CC(C)C[C@H](NC(=O)[C@H](Cc1ccccc1)NC(=O)c1cnccn1)B(O)O [Bortezomib] (partner 0.002 µM)
relative viability (NCI-H520; first compound 0.08 µM): 0.612
relative viability (NCI-H520; first compound 0.253 µM): 0.317
relative viability (NCI-H520; first compound 0.8 µM): 0.659
relative viability (NCI-H520; first compound 2.53 µM): 0.368
relative viability (RERF-LC-KJ; first compound 0.08 µM): 0.864
relative viability (RERF-LC-KJ; first compound 0.253 µM): 0.98
relative viability (RERF-LC-KJ; first compound 0.8 µM): 0.886
relative viability (RERF-LC-KJ; first compound 2.53 µM): 0.744
relative viability (Calu-6; first compound 0.08 µM): 0.936
relative viability (Calu-6; first compound 0.253 µM): 0.978
relative viability (Calu-6; first compound 0.8 µM): 1.05
relative viability (Calu-6; first compound 2.53 µM): 0.978
relative viability (IA-LM; first compound 0.08 µM): 0.736
relative viability (IA-LM; first compound 0.253 µM): 0.617
relative viability (IA-LM; first compound 0.8 µM): 0.607
relative viability (IA-LM; first compound 2.53 µM): 0.487
relative viability (NCI-H1651; first compound 0.08 µM): 0.906
relative viability (NCI-H1651; first compound 0.253 µM): 0.905
relative viability (NCI-H1651; first compound 0.8 µM): 0.942
relative viability (NCI-H1651; first compound 2.53 µM): 0.925
relative viability (NCI-H1703; first compound 0.08 µM): 0.451
relative viability (NCI-H1703; first compound 0.253 µM): 0.417
relative viability (NCI-H1703; first compound 0.8 µM): 0.293
relative viability (NCI-H1703; first compound 2.53 µM): 0.285
relative viability (EBC-1; first compound 0.08 µM): 0.589
relative viability (EBC-1; first compound 0.253 µM): 0.478
relative viability (EBC-1; first compound 0.8 µM): 0.584
relative viability (EBC-1; first compound 2.53 µM): 0.476
relative viability (NCI-H1299; first compound 0.08 µM): 1.06
relative viability (NCI-H1299; first compound 0.253 µM): 0.996
relative viability (NCI-H1299; first compound 0.8 µM): 1.07
relative viability (NCI-H1299; first compound 2.53 µM): 1.05
